Reference: patent US20230416196A1, “DIMER OF BIGUANIDINES AND THEIR THERAPEUTIC USES” (INSTITUT CURIE, priority 2020, published 2023)

Tests used:
[1] = test system: mice challenged with LPS; test: Murine model of LPS-induced severe inflammation; assay type: in vivo, BALB/c mice; details: LPS 20 mg/kg IP; LCC-12 0.3 mg/kg IP; dexamethasone 10 mg/kg PO as comparator; FIG. 4D
Description: Murine model of LPS-induced severe inflammation. Animal work was conducted at Fidelta Ltd according to 2010/63/EU and National legislation regulating the use of laboratory animals in scientific research and for other purposes (Official Gazette 55/13). An Institutional Committee on Animal Research Ethics (CARE-Zg) oversaw that animal-related procedures were not compromising the animal welfare. LPS (Sigma-Aldrich, L2630, 20 mg/kg) was injected intraperitoneally to male BALB/c mice (8 weeks-old). LCC-12 (0.3 mg/kg, IP, n=10) or vehicle (0.9% NaCl, 10 mL/kg, IP, n=10) were injected 2 h prior LPS challenge, then 24 h, 48 h, 72 h and 96 h post challenge. Dexamethasone (10 mg/kg, PO, n=10) was given 1 h prior LPS challenge. Incidence of mortality was monitored every 4 h up to 48 h, then twice daily.

[2] = test system: MCF7, FC1242 and DU-145 cells; test: Cell viability in epithelial versus mesenchymal state (TGF-β or OSM induced EMT); assay type: cell-based, human, mouse; details: EMT induced with TGF-β or OSM; FIG. 7
Description: Cell viability assay (IC50). Cell viability assay was carried out by plating 1000 cells/well in 96-well plates. Cells were treated for 72 h in a range between to 25 nM and […] using serial dilutions. The inventors followed the manufacturer's protocol. In brief, CellTiter-Blue® reagent (G8081, Promega) was added after 72 h treatment and cells were incubated for 3 h before recording fluorescence intensities (λex. 560/20 nm; λem. 590/10 nm) using a Perkin Elmer Wallac 1420 Victor2 Microplate Reader.
Cell culture. MCF7 (ATCC) cells, DU-145 (ATCC) cells and FC1245 cells were cultured in Dulbecco's Modified Eagle Medium GlutaMAX (DMEM, ThermoFisher Scientific, 61965059) supplemented with 10% Fetal Bovine Serum (FBS, Gibco, 10270-106) and Penicillin-Streptomycin mixture (BioWhittaker/Lonza, DE17-602E) unless stated otherwise. Primary lung circulating tumor cells (Celprogen, 36107-34CTC, Lot 219411) were grown using stem cell complete media (Celprogen, M36102-29PS) until the third passage. Circulating cancer cells were grown in stem cell ECM T75-flasks (Celprogen, E36102-29-T75) and ECM 6-well plates (Celprogen, E36102-29-6Well). […]

N=C(N)NC(=N)NCCCCCCCCCCCCNC(=N)NC(=N)N [LCC-12, lipophilic copper clamp C12]
survival of mice challenged with LPS [1]: increased the survival of mice challenged with LPS to a similar extent than dexamethasone | IC50-values in mesenchymal state compared to epithelial counterpart [2]: lower IC50-values in cells in the mesenchymal state compared to the epithelial counterpart
